Data on two compounds can be found in publication PMC9161086, “Water-Soluble Trichogin GA IV-Derived Peptaibols Protect Tomato Plants From Botrytis cinerea Infection With Limited Impact on Plant Defenses” (Frontiers in Plant Science, 2022).

On the set-up of data set [1]: method as in De Zotti et al., 2009. The following applies: ref De Zotti et al., 2009; cited from earlier work.
In data set [2] the test system is methicillin-resistant human pathogens. The following applies: ref De Zotti et al., 2009; cited from earlier work.
The nature of data set [3]: Hydrophilicity evaluated from HPLC retention times. Type of data set: physicochemical. Conditions: comparison to native Trichogin GA IV, C18 column Phenomenex Jupiter 5 μm, 300 Å, 250 × 4.5 mm, gradient 60%–100% B in 30 min, A H2O/CH3CN 9:1 0.05% TFA, B CH3CN/H2O 9:1 0.05% TFA.
In data set [4] the test system is Solanum lycopersicum cv. Micro-Tom leaves. Briefly: ROS detection with H2DCFDA on tomato leaves. The following applies: 50 μM in water, 10-μl droplets on abaxial surface of detached Micro-Tom leaves; 24 and 48 h; H2DCFDA fluorescence microscopy.

In the case of “1-octanoyl-Aib-Gly-Leu-Aib-Gly-Gly-Leu-Aib-Gly-Ile-Lol [Trichogin GA IV, 11-residue lipopeptaibol naturally produced by Trichoderma longibrachiatum]”, the Resistance to proteolysis entry in data set [1] is “remarkable resistance to proteolysis”. Further, in data set [2], the “Antibacterial activity against methicillin-resistant human pathogens” value is “antibacterial activity”.
On to `CCCCCCCC(=O)NC(C)(C)C(=O)NCC(=O)N[C@@H](CC(C)C)C(=O)NC(C)(C)C(=O)N[C@@H](CCCCN)C(=O)NC(C)(C)C(=O)N[C@@H](CC(C)C)C(=O)NC(C)(C)C(=O)NCC(=O)N[C@H](C(=O)N[C@@H](CC(C)C)C(N)=O)[C@@H](C)CC` [Pep 6r], for which the Hydrophilicity result in data set [3] is given as “+”. Further, the “ROS production on tomato leaves” value in data set [4] was “only Pep 4-treated leaves showed ROS production”.
